Tested on: female NMRI mice
Assay: Anorectic effect: cumulative condensed milk consumption of treated compared with control animals
Format: in vivo
Settings: oral dose 50 mg/kg by gavage, female NMRI mice after withdrawal of food for 24 hours; for Reduction in the cumulative milk consumption as % of the control: compared with vehicle-treated control animals; for cumulative milk consumption of the treated animals: condensed milk offered 30 minutes after administration, consumption determined for 7 hours
Description: The anorectic effect was tested on female NMRI mice. After withdrawal of food for 24 hours, the test product was administered by gavage. The animals were housed singly with free access to drinking water and were offered condensed milk 30 minutes after administration of the product. The condensed milk consumption was determined every half hour for 7 hours, and the general wellbeing of the animals was observed. The measured milk consumption was compared with the vehicle-treated control animals.

| SMILES | Reduction in the cumulative milk consumption as % of the control | cumulative milk consumption of the treated animals |
| --- | --- | --- |
| CC(C)N1CC2N(C(=O)C(N(C)C)CN2S(=O)(=O)c2ccc(Cl)cc2Cl)C(Cc2ccc(Cl)cc2)C1=O (stereo not shown) [Example 5, 6-(4-Chlorobenzyl)-1-(2,4-dichlorobenzenesulfonyl)-3-dimethylamino-8-isopropylhexahydropyrazino[1,2-a]pyrimidine-4,7-dione] | 31 % of the control | 5/2.4 ml |
| CC(C)N1CC2N(C(=O)C(NS(C)(=O)=O)CN2S(=O)(=O)c2ccc(Cl)cc2Cl)C(Cc2ccc(Cl)cc2)C1=O (stereo not shown) [Example 9, N-[6-(4-Chlorobenzyl)-1-(2,4-dichlorobenzenesulfonyl)-8-isopropyl-4,7-dioxooctahydropyrazino[1,2-a]pyrimidin-3-yl]methanesulfonamide] | 47 % of the control | 5/2.06 ml |

Reference: patent publication US7652007B2, “Nitrogen-substituted hexahydropyrazino[1,2-A]pyrimidine-4,7-dione derivatives, processes for their preparation and their use as medicaments” (Sanofi-Aventis Deutschland GmbH, priority 2003, dated 2010)
